Assay results taken from ChEMBL document CHEMBL3045417, “Structure, Conformation and Absolute Configuration of New Antifeedant Dolabellanes from Trichilia trifolia” (2000).

System: Sitophilus oryzae
Assay: Antifeedant activity against Sitophilus oryzae (rice weevil) assessed as mean diet consumed after 72 hr by flour disk bioassay based feeding choice assay (reference value: 7.61 +/- 1.59 mg/day)
Type: functional

Work on C=C(C)[C@H]1CC[C@]2(C)C/C=C(\C)CC/C=C(\C(=O)OC)CC[C@@H]12 yielded an Activity of 6.74 mg/day.

C=C(C)[C@H]1CC[C@]2(C)C[C@H](OC(C)=O)[C@]3(C)CCC=C(CC[C@@H]12)C(=O)O3 gave an Activity of 6.61 mg/day.

C=C(C)[C@H]1CC[C@]2(C)C/C=C(\C)CC/C=C(\C(=O)O)CC[C@@H]12 was tested, and the Activity was 1.17 mg/day.

In the case of C=C(C)[C@H]1CC[C@]2(C)C/C=C(\C)C[C@@H]3C=C(CC[C@@H]12)C(=O)O3, the Activity is reported as 3.36 mg/day.

C=C(C)[C@H]1CC[C@]2(C)C[C@H](O)[C@]3(C)CCC=C(CC[C@@H]12)C(=O)O3 gave an Activity of 1.03 mg/day.
